Entries after “also recorded” stand apart in the source; their conditions may differ.

One series has as its system HeLa cells. The series is described as follows: pH-dependent cell uptake by flow cytometry. Conditions: 5 μM, 1 hour, pH 7.4 vs pH 6.5. The class given is cell-based. An excerpt: FIGS. 5A-5B depict representative flow cytometry traces of pH-dependent cell treatments. […] Normalized cell counts (Y-axes) are plotted vs. doxorubicin fluorescence intensity per cell (X-axes).
(In general: Flow cytometry measures light scatter and fluorescence of single cells or particles in a stream.)

Series [1] is described as follows: Serum stability of prodrug (LCMS, 490 nm absorbance). The class given is in vitro ADME. Conditions: 50 μM in PBS pH 7.4 with 20% mouse serum, 37° C., 6 hours of incubation. As for the experimental part: FIG. 4A depicts liquid chromatography data showing the stability of YU241528 in serum.
The prodrug strategies of this invention are thought to impart their benefits during the distribution and cell uptake steps of anticancer therapy. In certain embodiments, a prodrug is stable in the blood for a period sufficient to allow for cell uptake and systemic clearance. To test this, 50 μM YU241528 in a solution of PBS, pH 7.4, containing 20% mouse serum was incubated at 37° C. At regular intervals, aliquots were taken and mixed with 2 volumes of ethanol to precipitate serum proteins, then centrifuged. Supernatants were analyzed by LCMS. […] The predominant peak was identified as YU241528 by mass spectrometry.

Series [2] in a line: Blood levels after tail vein injection. The class given is in vivo, adult female balb/c mice. As for the experimental part: Given that the drug's distribution and clearance can be expected to be substantially complete by about 6 hours after administration, in certain embodiments the peak intracellular dose is achieved long before this process might interfere to a significant degree, even assuming the altered metabolite is indeed compromised in its activity. […] In certain embodiments, the serum stability of YU241528 allows for effective therapy. […] In certain embodiments, the prodrug undergoes a different elimination path, as hepatobiliary elimination of weakly-ionic organic substances is sensitive to charge, size, and lipophilicity.

Series [3] in a line: Reductive activation / doxorubicin release in 5 mM GSH (LCMS). The class given is in vitro ADME. As to conditions: 50 μM, PBS pH 7.4, 5 mM GSH, 37° C. The procedure: In certain embodiments, the prodrug releases the active form of the drug once inside a cancer cell. Once inside the cell, drug release can be triggered by reduction of the disulfide bond in the linker. To evaluate the reductive activation of drug release, 50 μM YU241528 in a solution of PBS, pH 7.4, containing 5 mM GSH (a typical intracellular concentration of the predominant biological reducing agent) was incubated at 37° C. Aliquots were taken at regular intervals and analyzed by LCMS.

Series [4] concerns MDA-MB-231 breast cancer cells. The series is described as follows: pH-dependent cell growth inhibition (CellTiter-Glo). The class given is cell-based, Human. As to conditions: 6 hours treatment at pH 7.4 or pH 6.2, then 72 hours growth. As for the experimental part:
Cells treated for 6 hours at pH 7.4 (normal physiological pH, X traces) or pH 6.2 (acidic solid tumor pH, Y traces) were subsequently allowed to grow in normal growth medium for 72 hours, then cell viability was evaluated using the CellTiter-Glo assay kit (Promega). Normalized percent cell growth inhibition is plotted on the left side of each panel and IC50 values reported at each pH from non-linear regression analysis.
(§1) In order to evaluate pH-dependent activity, treatments are performed at atypical cell culture conditions. […] Several cell lines have been evaluated using this method and for each, cell seeding density and treatment duration is independently experimentally determined. Each experiment is normalized to sham and complete activity controls for each pH condition.
Human MDA-MB-231 breast cancer cells seeded at low density on tissue culture treated 384-well plates, allowed to adhere and grow in serum-supplemented growth medium for 24 hours, then treated under pH-controlled conditions for 6 hours, and finally washed and grown in fresh growth media for 72 hours were assessed for cell survival using the CellTiter-Glo assay system (Promega) (FIG. 6).

The conditions of series [5]: cited from earlier work.
Series [6] concerns PEO1 ovarian cancer cells. The series is described as follows: pH-dependent cell growth inhibition, transient treatment. As to conditions: for pH dependence of cell growth inhibition: pH 7.4 vs pH 6.2. The class given is cell-based. The procedure:
FIG. 9 depicts pH-dependent cell growth inhibition of PEO1 ovarian cancer cells in culture, treated transiently with various prodrugs of the invention, as described above.
FIG. 10 depicts pH-dependent cell growth inhibition of PEO1 ovarian cancer cells in culture, treated transiently with an anticancer kinase inhibitor drug, Osimertinib, or a compound of the invention, based on an active core of that drug, YU253673.
as §1
Similar results have been obtained from pH-dependent cell growth inhibition assays with other classes of Drug using the prodrug approach.

In a further series the test system is EMT-6 flank tumors. The series is described as follows: In vivo efficacy and toxicity in EMT-6 flank tumor model. Details: species or system Balb/c mice. Conditions: IV once daily for 5 days. An excerpt:
FIG. 7 depicts representative in vivo study on the efficacy and toxicity of compounds of the invention. […] Mean tumor volume and mean body weight graphs are shown for groups of 10 tumor-bearing mice.
FIG. 8 depicts the dose dependence of YU241531 (right panel) and YU244206 (left panel) treatments in the EMT-6 tumor model in Balb/c mice.

Regarding “8-((2-((((2S,3S,4S,6R)-3-hydroxy-2-methyl-6-(((1S,3S)-3,5,12-trihydroxy-3-(2-hydroxyacetyl)-10-methoxy-6,11-dioxo-1,2,3,4,6,11-hexahydrotetracen-1-yl)oxy)tetrahydro-2H-pyran-4-yl)carbamoyl)oxy)ethyl)disulfaneyl)-2,2-dimethyloctanoic acid [YU241528]”, the “pH preference of cell uptake” value with HeLa cells was “preferentially taken up by cells at cancerous pH 6.5 versus cells at normal pH 7.4”. For the same compound, the “release of free doxorubicin / stability in serum” value in series [1] is recorded as “no active doxorubicin is released; also recorded: no free doxorubicin was detected; also recorded: stable in serum”. Besides, in series [2], the “non-compartmental half-life in blood” value is “about 1 hour”. Besides, the “level in the blood at 6 hours post injection” value in series [2] (6 hours) is given as “remains at detectable levels”. The “level in the blood at 24 hours post injection” value in series [2] (24 hours) is recorded as “undetectable”. The “t1/2 of reduction of the disulfide” value in series [3] was roughly 2.7 min.
For `COc1cccc2c1C(=O)c1c(O)c3c(c(O)c1C2=O)C[C@@](O)(C(=O)CO)C[C@@H]3O[C@H]1C[C@H](N)[C@H](O)[C@H](C)O1` [Doxorubicin, reference compound], the “pH preference of cell uptake” value with HeLa cells was “greater uptake into cells at normal physiologic pH 7.4 than into cells at cancerous pH 6.5”. Further, in series [4], the “pH dependence of cell growth inhibition” value is given as “greater growth inhibition at basic healthy pH”. In series [5], the “basic pKA of amine group” value is roughly 8.
For the compound `C=CC(=O)Nc1cc(Nc2nccc(-c3cn(C)c4ccccc34)n2)c(OC)cc1N(C)CCN(C)C` [Osimertinib, reference compound], the “pH dependence of cell growth inhibition” value in series [6] is given as “slightly lower IC50 value at healthy pH 7.4”.
Turning to `COc1cccc2c1C(=O)c1c(O)c3c(c(O)c1C2=O)C[C@@](O)(C(=O)CO)C[C@@H]3O[C@H]1C[C@H](NC(=O)OCCSSCCCCCCCC(=O)O)[C@H](O)[C@H](C)O1` [YU241531, 8-((2-((((2S,3S,4S,6R)-3-hydroxy-2-methyl-6-(((1S,3S)-3,5,12-trihydroxy-3-(2-hydroxyacetyl)-10-methoxy-6,11-dioxo-1,2,3,4,6,11-hexahydrotetracen-1-yl)oxy)tetrahydro-2H-pyran-4-yl)carbamoyl)oxy)ethyl)disulfaneyl)octanoic acid], the “body weight loss compared to sham treated controls” value in the series on EMT-6 flank tumors was “no detectable weight loss”. For the same compound, the “pH dependence of cell growth inhibition” value in series [4] was “greater growth inhibition at acidic tumor pH”.
The like results for `COc1cccc2c1C(=O)c1c(O)c3c(c(O)c1C2=O)C[C@@](O)(C(=O)CO)C[C@@H]3O[C@H]1C[C@H](NC(=O)OCCSSCCCc2c(F)c(F)c(O)c(F)c2F)[C@H](O)[C@H](C)O1` [YU244206, 2-((3-(2,3,5,6-tetrafluoro-4-hydroxyphenyl)propyl)disulfaneyl)ethyl ((2S,3S,4S,6R)-3-hydroxy-2-methyl-6-(((1S,3S)-3,5,12-trihydroxy-3-(2-hydroxyacetyl)-10-methoxy-6,11-dioxo-1,2,3,4,6,11-hexahydrotetracen-1-yl)oxy)tetrahydro-2H-pyran-4-yl)carbamate] were, in that order, “no detectable weight loss” and “greater growth inhibition at acidic tumor pH”.
Turning to `C=CC(=O)Nc1cc(Nc2nccc(-c3cn(C)c4ccccc34)n2)c(OC)cc1N(C)CCCc1c(F)c(F)c(O)c(F)c1F` [YU253673, N-(4-methoxy-2-(methyl(3-(2,3,5,6-tetrafluoro-4-hydroxyphenyl)propyl)amino)-5-((4-(1-methyl-1H-indol-3-yl)pyrimidin-2-yl)amino)phenyl)acrylamide], the “cell growth inhibition at pH 6.2” value in series [6] (pH 6.2) is “potent cell growth inhibition”. For the same compound, the “fold greater activity in tumor pH conditions compared with healthy pH conditions” value in series [6] (pH 6.2 vs pH 7.4) is listed as “more than 30 fold”. Besides, the “cell growth inhibition at pH 7.4” value in series [6] (pH 7.4) is given as “no observed activity”. For the same compound, the “pH dependence of cell growth inhibition” value in series [6] is “far greater activity at tumor pH 6.2”.

These data come from patent US20210085796A1, “ANTICANCER DRUGS AND METHODS OF MAKING AND USING SAME” (YALE UNIVERSITY, priority 2017, published 2021).
